{
  "source": "patent US20250051277A1",
  "about": "“DELIVERY OF THERAPEUTIC ALKALOID COMPOUNDS” (Sensorium Therapeutics, Inc., priority 2021, published 2025)",
  "key": {"[1]": {"assay": "Plasma Stability Assay of Example A3, mouse plasma", "settings": "5 μM, 37° C., % of prodrug compound remaining"}, "[2]": {"assay": "Plasma Stability Assay of Example A3, human plasma", "settings": "5 μM, 37° C., % of prodrug compound remaining"}, "[3]": {"settings": "10 μM"}, "[4]": {"settings": "0 min, 5 μM"}, "[5]": {"settings": "10 μM", "remark": "listed apart in the source", "method": "50 μL aliquots of positive controls and test compounds spiked into rat or human plasma (n=2) were added to a pre-warmed plate (37° C.) and shaken at 50 rpm. At each respective time point, the reaction was stopped by adding 500 μL of acetonitrile containing internal standards (100 nM aprozolam, 200 nM caffeine, 100 nM tolbutamide). All samples were vortexed for 10 minutes, followed by centrifugation at 3,220 g for 30 minutes to precipitate proteins. 100 μL of the supernatant is transferred to a new plate. The supernatant will be diluted with ultrapure water according to the LC-MS signal response and peak shape."}, "[6]": {"settings": "0 min, 5 μM", "remark": "listed apart in the source"}},
  "note": "Like-named read-outs stand apart in the source and are kept apart here.",
  "data": [
    {"smiles": "COc1ccc([C@@]23CCC(OC(=O)c4c(C)cccc4C)=C[C@@H]2N(C)CC3)cc1OC", "note": "[Compound 372, (3aS,7aS)-3a-(3,4-dimethoxyphenyl)-1-methyl-2,3,3a,4,5,7a-hexahydro-1H-indol-6-yl2,6-dimethylbenzoate]", "values": [
      {"measurement": "Mouse Plasma Prodrug (%)", "setting": "[1]; 0 min", "result": 100, "unit": "%"},
      {"measurement": "Mouse Plasma Prodrug (%)", "setting": "[1]; 15 min", "result": 92, "unit": "%"},
      {"measurement": "Mouse Plasma Prodrug (%)", "setting": "[1]; 30 min", "result": 91, "unit": "%"},
      {"measurement": "Mouse Plasma Prodrug (%)", "setting": "[1]; 60 min", "result": 88, "unit": "%"},
      {"measurement": "Mouse Plasma Prodrug (%)", "setting": "[1]; 120 min", "result": 73, "unit": "%"},
      {"measurement": "Mouse Plasma Prodrug (%)", "setting": "[1]; 240 min", "result": 64, "unit": "%"},
      {"measurement": "Human Plasma Prodrug (%)", "setting": "[2]; 0 min", "result": 100, "unit": "%"},
      {"measurement": "Human Plasma Prodrug (%)", "setting": "[2]; 15 min", "result": 97, "unit": "%"},
      {"measurement": "Human Plasma Prodrug (%)", "setting": "[2]; 30 min", "result": 99, "unit": "%"},
      {"measurement": "Human Plasma Prodrug (%)", "setting": "[2]; 60 min", "result": 94, "unit": "%"},
      {"measurement": "Human Plasma Prodrug (%)", "setting": "[2]; 120 min", "result": 81, "unit": "%"},
      {"measurement": "Human Plasma Prodrug (%)", "setting": "[2]; 240 min", "result": 38, "unit": "%"},
      {"measurement": "Prodrug (%) remaining, Human Plasma", "setting": "[3]; 0 h", "result": 100.0, "unit": "%"},
      {"measurement": "Prodrug (%) remaining, Human Plasma", "setting": "[3]; 10 min", "result": ">99", "unit": "%"},
      {"measurement": "Prodrug (%) remaining, Human Plasma", "setting": "[3]; 0.5 h", "result": ">99", "unit": "%"},
      {"measurement": "Prodrug (%) remaining, Human Plasma", "setting": "[3]; 1 h", "result": ">99", "unit": "%"},
      {"measurement": "Prodrug (%) remaining, Human Plasma", "setting": "[3]; 2 h", "result": ">99", "unit": "%"},
      {"measurement": "Prodrug (%) remaining, Human Plasma", "setting": "[3]; 4 h", "result": ">99", "unit": "%"},
      {"measurement": "Mouse Plasma Compound 001 (%)", "setting": "[4]", "result": 0, "unit": "%"},
      {"measurement": "Prodrug (%) remaining, Rat Plasma", "setting": "[5]; 0 h", "result": 100.0, "unit": "%"},
      {"measurement": "Prodrug (%) remaining, Rat Plasma", "setting": "[5]; 10 min", "result": ">99", "unit": "%"},
      {"measurement": "Prodrug (%) remaining, Rat Plasma", "setting": "[5]; 0.5 h", "result": ">99", "unit": "%"},
      {"measurement": "Prodrug (%) remaining, Rat Plasma", "setting": "[5]; 1 h", "result": ">99", "unit": "%"},
      {"measurement": "Prodrug (%) remaining, Rat Plasma", "setting": "[5]; 2 h", "result": 98.4, "unit": "%"},
      {"measurement": "Prodrug (%) remaining, Rat Plasma", "setting": "[5]; 4 h", "result": ">99", "unit": "%"},
      {"measurement": "Human Plasma Compound 001 (%)", "setting": "[6]", "result": 0.00, "unit": "%"}
    ]}
  ]
}
